A word on the solubility: it is the concentration that dissolves in the medium under given conditions. A low value points to little dissolved substance.

Data on nine compounds can be found in patent US20160318892A1, “PRODRUG COMPOUNDS” (PROXIMAGEN LIMITED, priority 2013, published 2016).

The nature of series [1]: Solubility in aqueous solutions. The class given is physicochemical. To be noted: aqueous solution. The text has this: In an embodiment prodrugs of the present invention are suitable for oral administration. The skilled person understands that the pH of the gastrointestinal tract changes along its length. For example, the stomach has a pH of around pH 1.5 and the GI tract after the stomach has a pH of around 5 to 7.5. For more detail see, for example, Measurement of gastrointestinal pH profiles in normal ambulant human subjects, Gut. 1988 August; 29(8): 1035-1041. Improved solubility is expected to result in improved absorption, and therefore improved oral bioavailability. Thus improved solubility at any pH value between around pH 1.5 to 8 is expected to improve oral bioavailability. Compounds of the invention were assessed for solubility in aqueous solutions having a pH of from 2 to 10. In an embodiment prodrugs of the invention have a solubility of >0.5 mg/mL in an aqueous solution having a pH of from 2 to 8. In an embodiment prodrugs have a solubility of >5.0 mg/mL, or >10.0 mg/mL, >100.0 mg/mL, or >200.0 mg/mL. In an embodiment the prodrugs have the aforementioned aqueous solubility at a pH within the range of from 4 to 8, or from 6 to 8.
In an embodiment prodrugs of the invention are administered intravenously. High prodrug solubility is advantageous in order to reduce the volume of solution administered to the patient, and to reduce the risk of damage to the circulatory system. Solubility of >10 mg/mL is preferred. Yet more preferred is solubility of >30 mg/mL or >100.0 mg/mL. Yet more preferred is solubility of >200.0 mg/mL. The solubility is measured in an aqueous solution having a pH of from 2 to 10, which pH range is advantageous for intravenous prodrug delivery. See, for example, A guide on intravenous drug compatibilities based on their pH, Nasser S C et al./Pharmacie Globale (IJCP) 2010, 5 (01)). In an embodiment the prodrugs of the claimed invention have solubility of >10 mg/mL in an aqueous solution having a pH of from 2 to 10.

The subject of series [2] is unique stereo-selective site in rat brain. To be noted: cited from earlier work.
The subject of series [3] is high K+ evoked CSD. To be noted: rats; cited from earlier work.
For series [4], the system named is high K+ evoked CSD. Conditions: cats; cited from earlier work.
Series [5] concerns unique stereo-selective site in human brain. Conditions: cited from earlier work.

≈ marks a conversion by molar mass, not a printed value. Read-outs that look alike come from different tables or passages of the source.

Take `CC(=O)c1ccc2c(c1)[C@H](NC(=O)c1ccc(F)cc1)[C@@H](OP(=O)(O)O)C(C)(C)O2` [Example 1, {[(3R,4S)-6-Acetyl-4-[(4-fluorobenzene)amido]-2,2-dimethyl-3,4-dihydro-2H-1-benzopyran-3-yl]oxy}phosphonic acid]: the solubility in series [1] (aqueous buffer, pH 7.0) was ~10000 µg/mL (≈ 22.9 mM). For `CC(=O)c1ccc2c(c1)[C@H](NC(=O)c1ccc(F)cc1)[C@@H](OC(=O)[C@@H](N)C(C)C)C(C)(C)O2.Cl` [Example 3, (3R,4S)-6-Acetyl-4-[(4-fluorobenzene)amido]-2,2-dimethyl-3,4-dihydro-2H-1-benzopyran-3-yl (2S)-2-amino-3-methylbutanoate hydrochloride], the solubility in series [1] (pH 3.6, aqueous buffer) is < 1000 µg/mL.

In the case of `CC(=O)c1ccc2c(c1)[C@H](NC(=O)c1ccc(F)c(Cl)c1)[C@H](O)C(C)(C)O2` [Tonabersat], the “binding affinity to unique stereo-selective site” value in series [2] and in series [5] was “high affinity” each time. The “inhibition of high K+ evoked CSD” value in series [3] and in series [4] was “inhibits” in each case. As for `CC(=O)c1ccc2c(c1)[C@H](NC(=O)c1ccc(F)cc1)[C@@H](OC(=O)[C@@H](NC(=O)[C@@H](N)C(C)C)C(C)C)C(C)(C)O2.Cl` [Example 4, (3R,4S)-6-Acetyl-4-[(4-fluorobenzene)amido]-2,2-dimethyl-3,4-dihydro-2H-1-benzopyran-3-yl (2S)-2-[(2S)-2-amino-3-methylbutanamido]-3-methylbutanoate hydrochloride], the solubility in series [1] (pH 4.2, aqueous buffer) is > 10000 µg/mL. With `CC(=O)c1ccc2c(c1)[C@H](NC(=O)c1ccc(F)cc1)[C@@H](OC(=O)CNC(C)C)C(C)(C)O2.Cl` [Example 7, (3R,4S)-6-Acetyl-4-[(4-fluorobenzene)amido]-2,2-dimethyl-3,4-dihydro-2H-1-benzopyran-3-yl 2-[(propan-2-yl)amino]acetate hydrochloride], the solubility in series [1] (pH 3.5, aqueous buffer) was < 1000 µg/mL. As for `CC(=O)c1ccc2c(c1)[C@H](NC(=O)c1ccc(F)cc1)[C@@H](OC(=O)CN)C(C)(C)O2.Cl` [Example 5, (3R,4S)-6-Acetyl-4-[(4-fluorobenzene)amido]-2,2-dimethyl-3,4-dihydro-2H-1-benzopyran-3-yl 2-aminoacetate hydrochloride], the solubility in series [1] (pH 5.1, aqueous buffer) is > 5000 µg/mL. On to `CC(=O)c1ccc2c(c1)[C@H](NC(=O)c1ccc(F)cc1)[C@@H](OC(=O)OCCN1CCOCC1)C(C)(C)O2.Cl` [Example 8, (3R,4S)-6-Acetyl-4-[(4-fluorobenzene)amido]-2,2-dimethyl-3,4-dihydro-2H-1-benzopyran-3-yl 2-(morpholin-4-yl)ethyl carbonate hydrochloride], for which the solubility in series [1] (aqueous buffer, pH 4.0) was ~10000 µg/mL. On to `CC(=O)c1ccc2c(c1)[C@H](NC(=O)c1ccc(F)cc1)[C@@H](OC(=O)CNC(=O)[C@@H]1CCCN1)C(C)(C)O2.Cl` [Example 6, (3R,4S)-6-Acetyl-4-[(4-fluorobenzene)amido]-2,2-dimethyl-3,4-dihydro-2H-1-benzopyran-3-yl 2-[(2S)-pyrrolidin-2-ylformamido]acetate hydrochloride], for which the solubility in series [1] (pH 6.1, aqueous buffer) is > 10000 µg/mL.

Regarding `CC(=O)c1ccc2c(c1)[C@H](NC(=O)c1ccc(F)cc1)[C@@H](OCOP(=O)([O-])O)C(C)(C)O2.[Na+]` [Example 2, Sodium {[(3R,4S)-6-Acetyl-4-[(4-fluorobenzene)amido]-2,2-dimethyl-3,4-dihydro-2H-1-benzopyran-3-yl]oxy}methyl hydrogen phosphate], the solubility in series [1] (aqueous buffer, pH 4.0) was > 10000 µg/mL.
